Measured values published in patent US4536346A, “Aralkanamidophenyl compounds” (American Cyanamid Company, priority 1983, dated 1985).

Biological target: T1, fatty acyl CoA: cholesterol acyl transferase (ACAT) (Rattus norvegicus, UniProt O70536)
T1 construct: The supernatant, containing the microsomal fraction, served as the source of the cholesterol-esterifying enzyme; from tissue; host or cells: rat adrenals (1,000 x g supernatant containing the microsomal fraction)
T1 sequence (O70536 1-545): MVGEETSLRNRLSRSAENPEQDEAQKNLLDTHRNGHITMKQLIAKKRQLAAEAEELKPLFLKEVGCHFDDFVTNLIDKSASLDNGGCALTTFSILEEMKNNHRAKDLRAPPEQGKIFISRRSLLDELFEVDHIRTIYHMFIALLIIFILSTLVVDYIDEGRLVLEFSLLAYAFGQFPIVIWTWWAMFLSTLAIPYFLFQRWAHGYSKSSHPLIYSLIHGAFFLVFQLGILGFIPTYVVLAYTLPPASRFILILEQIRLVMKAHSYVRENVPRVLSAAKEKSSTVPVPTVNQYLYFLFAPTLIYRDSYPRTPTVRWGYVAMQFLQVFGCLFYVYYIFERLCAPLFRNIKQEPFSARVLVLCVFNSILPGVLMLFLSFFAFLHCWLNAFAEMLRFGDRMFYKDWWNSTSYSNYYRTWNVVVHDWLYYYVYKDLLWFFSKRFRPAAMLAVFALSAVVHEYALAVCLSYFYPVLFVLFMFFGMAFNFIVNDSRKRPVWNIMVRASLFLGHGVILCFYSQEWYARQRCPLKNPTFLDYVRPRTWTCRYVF
Assay: Inhibition of enzymatic esterification of cholesterol (ACAT) in rat adrenal supernatant containing the microsomal fraction
Type: biochemical
Conditions: final concentration of test compound 5.2 μg./ml., percent inhibition of the ACAT enzyme compared to control values
Procedure: The compounds of the present invention were tested for their ability to inhibit the enzymatic esterification of cholesterol according to the following procedure:
Rat adrenals were homogenized in 0.2M monobasic potassium phosphate buffer, pH 7.4, and centrifuged at 1,000 times gravity for 15 minutes at 5° C. The supernatant, containing the microsomal fraction, served as the source of the cholesterol-esterifying enzyme, fatty acyl CoA: cholesterol acyl transferase (ACAT). A mixture comprising 50 parts of adrenal supernatant, 10 parts of albumin (BSA) (50 mg./ml.), […], 3 parts of test compound, and 500 parts of buffer was pre-incubated at 37° C. for 10 minutes. After treatment with 20 parts of oleoyl CoA (^14 C-0.4 μCi), the mixture was incubated at 37° C. for 10 minutes. A control mixture, omitting the test compound, was prepared and treated in the same manner. The lipids from the incubation mixture were extracted into an organic solvent and separated by thin-layer chromatography. The cholesterol ester fraction was counted in a scintillation counter. This procedure is a modification of that described by Hashimoto, et al., Life Scie., 12 (Part II), 1-12 (1973).
The results of this test on representative compounds of this invention appear in Table I. The final concentration of the test compound was 5.2 μg./ml., and the effectiveness of the compound is expressed as percent inhibition of the ACAT enzyme compared to control values.

Q: With `O=C(C=C(c1ccccc1)c1ccccc1)Nc1ccc(C(=O)O)cc1` [4-(3,3-Diphenylacrylamido)benzoic acid] as the compound, how does the inhibition at 5.2 µg/mL read?
A: The inhibition at 5.2 µg/mL was 66%.

Q: For `CCOC(=O)c1ccc(NC(=O)C=Cc2ccc(Cl)cc2)cc1` [4-(p-Chlorocinnamamido)benzoic acid, ethyl ester], which inhibition at 5.2 µg/mL is on record?
A: Its inhibition at 5.2 µg/mL is 51%.

Q: `CCOC(=O)c1ccc(NC(=O)C=C(c2ccccc2)c2ccc(Cl)c([N+](=O)[O-])c2)cc1` [4-(4-Chloro-3-nitro-β-phenylcinnamamido)benzoic acid, ethyl ester] was tested. Which inhibition at 5.2 µg/mL did it give?
A: The inhibition at 5.2 µg/mL was 94%.

Q: `COc1ccc(NC(=O)CC(c2ccc(OC)cc2)c2ccc(OC)cc2)cc1` [N--(p-Methoxyphenyl)-3,3-bis(4-methoxyphenyl)propionamide] was tested. Which inhibition at 5.2 µg/mL did it give?
A: The inhibition at 5.2 µg/mL was 58%.

Q: For `CCOC(=O)c1ccc(NC(=O)CCc2ccc(C)cc2)cc1` [4-(p-Methylhydrocinnamamido)benzoic acid, ethyl ester], which inhibition at 5.2 µg/mL is on record?
A: Its inhibition at 5.2 µg/mL is 25%.

Q: `CCOC(=O)c1ccc(NC(=O)C=Cc2ccc(OC)cc2)cc1` [4-(p-Methoxycinnamamido)benzoic acid, ethyl ester] was tested. Which inhibition at 5.2 µg/mL did it give?
A: The inhibition at 5.2 µg/mL was 53%.

Q: Which inhibition at 5.2 µg/mL does the source give for `Cc1ccc(C(CC(=O)Nc2ccc(Cl)cc2)c2ccc(C)cc2)cc1` [N--(p-Chlorophenyl)-3,3-bis(p-tolyl)propionamide] here?
A: The inhibition at 5.2 µg/mL was 89%.

Q: For `COc1ccc(C(CC(=O)Nc2ccc(C(F)(F)F)cc2)c2ccc(OC)cc2)cc1` [N--(p-Trifluoromethylphenyl)-3,3-bis(4-methoxyphenyl)propionamide], which inhibition at 5.2 µg/mL is on record?
A: The inhibition at 5.2 µg/mL was 92%.

Q: For `O=C(C=C(c1ccc(F)cc1)c1ccc(F)cc1)Nc1ccc(C(=O)O)cc1` [4-[3,3-Bis(p-fluorophenyl)acrylamido]benzoic acid], which inhibition at 5.2 µg/mL is on record?
A: Its inhibition at 5.2 µg/mL is 79%.

Q: How did the inhibition at 5.2 µg/mL turn out when `CCOC(=O)c1ccc(NC(=O)C=C(c2ccccc2)c2ccc(C)cc2)cc1` [4-(p-Methyl-β-phenylcinnamamido)benzoic acid, ethyl ester] was run?
A: The inhibition at 5.2 µg/mL was 88%.

Q: For `CCOC(=O)c1ccc(NC(=O)C(c2ccc(Cl)cc2)c2ccc(Cl)cc2)cc1` [4-[2,2-Bis(p-chlorophenyl)acetamido]benzoic acid, ethyl ester], which inhibition at 5.2 µg/mL is on record?
A: Its inhibition at 5.2 µg/mL is 86%.

Q: With `COc1ccc(C(CC(=O)Nc2ccc(C)cc2)c2ccc(OC)cc2)cc1` [N--(p-Tolyl)-3,3-bis(4-methoxyphenyl)propionamide] as the compound, how does the inhibition at 5.2 µg/mL read?
A: The inhibition at 5.2 µg/mL was 97%.

Q: `CCOC(=O)c1ccc(NC(=O)CC(c2ccc(Cl)cc2)c2ccc(Cl)cc2)cc1` [4-[3,3-Bis(p-chlorophenyl)propionamido]benzoic acid, ethyl ester] was tested. Which inhibition at 5.2 µg/mL did it give?
A: Its inhibition at 5.2 µg/mL is 94%.

Q: `N#Cc1ccc(NC(=O)CC(c2ccc(Cl)cc2)c2ccc(Cl)cc2)cc1` [N--(4-Cyanophenyl)-3,3-bis(p-chlorophenyl)propionamide] was tested. Which inhibition at 5.2 µg/mL did it give?
A: Its inhibition at 5.2 µg/mL is 96%.

Q: With `COC(=O)c1ccccc1NC(=O)C=C(c1ccc(Cl)cc1)c1ccc(Cl)cc1` [2-[3,3-Bis(p-chlorophenyl)acrylamido]benzoic acid, methyl ester] as the compound, how does the inhibition at 5.2 µg/mL read?
A: Its inhibition at 5.2 µg/mL is 71%.

Q: For `COc1ccc(C(CC(=O)Nc2ccc(Cl)cc2)c2ccc(OC)cc2)cc1` [N--(p-Chlorophenyl)-3,3-bis(4-methoxyphenyl)propionamide], which inhibition at 5.2 µg/mL is on record?
A: The inhibition at 5.2 µg/mL was 91%.

Q: `Cc1ccc(C(CC(=O)Nc2ccc(C(F)(F)F)cc2)c2ccc(C)cc2)cc1` [N--(p-Trifluoromethylphenyl)-3,3-bis(p-tolyl)propionamide] was tested. Which inhibition at 5.2 µg/mL did it give?
A: The inhibition at 5.2 µg/mL was 94%.

Q: For `Cc1ccc(C(CC(=O)Nc2ccc(C#N)cc2)c2ccc(C)cc2)cc1` [N--(p-Cyanophenyl)-3,3-bis(p-tolyl)propionamide], which inhibition at 5.2 µg/mL is on record?
A: Its inhibition at 5.2 µg/mL is 90%.

Q: `Cc1ccc(NC(=O)CC(c2ccc(C)cc2)c2ccc(C)cc2)cc1` [N--(p-Tolyl)-3,3-bis(p-tolyl)propionamide] was tested. Which inhibition at 5.2 µg/mL did it give?
A: Its inhibition at 5.2 µg/mL is 66%.

Q: For `COc1ccc(C(CC(=O)Nc2ccc(C(=O)O)cc2)c2ccc(OC)cc2)cc1` [4'-[3,3-Bis(4-methoxyphenyl)propionamido]benzoic acid], which inhibition at 5.2 µg/mL is on record?
A: The inhibition at 5.2 µg/mL was 45%.

Q: `O=C(CCc1ccc(Cl)cc1)Nc1ccc(C(=O)O)cc1` [4-(p-Chlorohydrocinnamamido)benzoic acid] was tested. Which inhibition at 5.2 µg/mL did it give?
A: The inhibition at 5.2 µg/mL was 33%.

Q: `O=C(CC(c1ccc(Cl)cc1)c1ccc(Cl)cc1)Nc1ccccc1` [N--Phenyl-3,3-bis(p-chlorophenyl)propionamide] was tested. Which inhibition at 5.2 µg/mL did it give?
A: Its inhibition at 5.2 µg/mL is 50%.

Q: How did the inhibition at 5.2 µg/mL turn out when `COc1ccc(C(CC(=O)Nc2ccccc2)c2ccc(OC)cc2)cc1` [N--Phenyl-3,3-bis(4-methoxyphenyl)propionamide] was run?
A: The inhibition at 5.2 µg/mL was 91%.

Q: For `CCOC(=O)c1ccc(NC(=O)C=C(C)c2ccc(Cl)c(Cl)c2)cc1` [4-(3,4-Dichlorophenyl-β-methylacrylamido)benzoic acid, ethyl ester], which inhibition at 5.2 µg/mL is on record?
A: Its inhibition at 5.2 µg/mL is 74%.

Q: For `Cc1ccc(C(CC(=O)Nc2ccccc2)c2ccc(C)cc2)cc1` [N--Phenyl-3,3-bis(p-tolyl)propionamide], which inhibition at 5.2 µg/mL is on record?
A: The inhibition at 5.2 µg/mL was 82%.

Q: With `CCOC(=O)c1ccc(NC(=O)C=C(c2ccccc2)c2ccc(Cl)cc2)cc1` [4-(p-Chloro-β-phenylcinnamamido)benzoic acid, ethyl ester] as the compound, how does the inhibition at 5.2 µg/mL read?
A: Its inhibition at 5.2 µg/mL is 92%.

Q: Which inhibition at 5.2 µg/mL does the source give for `O=C(C=C(c1ccc(Cl)cc1)c1ccc(Cl)cc1)Nc1ccccc1C(=O)O` [2-[3,3-Bis(p-chlorophenyl)acrylamido]benzoic acid] here?
A: The inhibition at 5.2 µg/mL was 32%.

Q: How did the inhibition at 5.2 µg/mL turn out when `CCOC(=O)c1ccc(NC(=O)C=C(c2ccc(OC)cc2)c2ccc(OC)cc2)cc1` [4-[3,3-Bis(p-methoxyphenyl)acrylamido]benzoic acid, ethyl ester] was run?
A: The inhibition at 5.2 µg/mL was 97%.

Q: How did the inhibition at 5.2 µg/mL turn out when `Cc1ccc(NC(=O)CC(c2ccc(Cl)cc2)c2ccc(Cl)cc2)cc1` [N--(4-Tolyl)-3,3-bis(p-chlorophenyl)propionamide] was run?
A: The inhibition at 5.2 µg/mL was 36%.

Q: Which inhibition at 5.2 µg/mL does the source give for `O=C(C=C(c1ccc(Cl)cc1)c1ccc(Cl)cc1)Nc1ccc(C(=O)O)cc1` [4-[3,3-Bis(p-chlorophenyl)acrylamido]benzoic acid] here?
A: Its inhibition at 5.2 µg/mL is 91%.

Q: Which inhibition at 5.2 µg/mL does the source give for `CCOC(=O)c1ccc(NC(=O)C=C(c2ccc(Cl)cc2)c2ccc(Cl)cc2)cc1` [4-[3,3-Bis(p-chlorophenyl)acrylamido]benzoic acid, ethyl ester] here?
A: The inhibition at 5.2 µg/mL was 93%.

Q: `O=C(C=C(c1ccccc1)c1ccc(Cl)cc1)Nc1ccc(C(=O)O)cc1` [4-(p-Chloro-β-phenylcinnamamido)benzoic acid] was tested. Which inhibition at 5.2 µg/mL did it give?
A: The inhibition at 5.2 µg/mL was 77%.

Q: How did the inhibition at 5.2 µg/mL turn out when `CCOC(=O)c1ccc(NC(=O)C=C(C)c2ccc(Cl)cc2)cc1` [4-(p-Chloro-β-methylcinnamamido)benzoic acid, ethyl ester] was run?
A: The inhibition at 5.2 µg/mL was 74%.

Q: `CCOC(=O)c1ccc(NC(=O)CC(c2ccc(OC)cc2)c2ccc(OC)cc2)cc1` [Ethyl 4'-[3,3-bis(4-methoxyphenyl)propionamido]benzoate] was tested. Which inhibition at 5.2 µg/mL did it give?
A: The inhibition at 5.2 µg/mL was 91%.

Q: With `CCOC(=O)c1ccc(NC(=O)C=C(c2ccc(Br)cc2)c2ccc(Br)cc2)cc1` [4-[3,3-Bis(p-bromophenyl)acrylamido]benzoic acid, ethyl ester] as the compound, how does the inhibition at 5.2 µg/mL read?
A: Its inhibition at 5.2 µg/mL is 96%.

Q: How did the inhibition at 5.2 µg/mL turn out when `CCOC(=O)c1ccc(NC(=O)C=C(c2ccccc2)c2ccccc2)cc1` [p-(3,3-Diphenylacrylamido)benzoic acid, ethyl ester] was run?
A: The inhibition at 5.2 µg/mL was 40%.

Q: With `CCOC(=O)c1ccc(NC(=O)CCc2ccc(Cl)cc2)cc1` [4-(p-Chlorohydrocinnamamido)benzoic acid, ethyl ester] as the compound, how does the inhibition at 5.2 µg/mL read?
A: The inhibition at 5.2 µg/mL was 30%.

Q: Which inhibition at 5.2 µg/mL does the source give for `COc1ccc(C(=CC(=O)Nc2ccc(C(=O)O)cc2)c2ccc(OC)cc2)cc1` [4-[3,3-Bis(p-methoxyphenyl)acrylamido]benzoic acid] here?
A: The inhibition at 5.2 µg/mL was 78%.

Q: How did the inhibition at 5.2 µg/mL turn out when `Cc1ccc(C(=CC(=O)Nc2ccc(C(=O)O)cc2)c2ccccc2)cc1` [4-(p-Methyl-β-phenylcinnamamido)benzoic acid] was run?
A: Its inhibition at 5.2 µg/mL is 80%.

Q: For `O=C(CC(c1ccc(Cl)cc1)c1ccc(Cl)cc1)Nc1ccc(C(=O)O)cc1` [4-[3,3-Bis(p-chlorophenyl)propionamido]benzoic acid], which inhibition at 5.2 µg/mL is on record?
A: The inhibition at 5.2 µg/mL was 71%.

Q: `N#Cc1ccc(NC(=O)C=C(c2ccc(Cl)cc2)c2ccc(Cl)cc2)cc1` [3,3-Bis(p-chlorophenyl-4'-cyanoacrylanilide] was tested. Which inhibition at 5.2 µg/mL did it give?
A: The inhibition at 5.2 µg/mL was 96%.

Q: How did the inhibition at 5.2 µg/mL turn out when `CCOC(=O)c1ccc(NC(=O)CCCCCc2ccc(Cl)cc2)cc1` [4-[6-(p-Chlorophenyl)hexanamido]benzoic acid, ethyl ester] was run?
A: The inhibition at 5.2 µg/mL was 42%.

Q: `CCOC(=O)c1ccc(NC(=O)C=C(c2ccc(F)cc2)c2ccc(F)cc2)cc1` [4-[3,3-Bis(p-fluorophenyl)acrylamido]benzoic acid, ethyl ester] was tested. Which inhibition at 5.2 µg/mL did it give?
A: The inhibition at 5.2 µg/mL was 74%.

Q: For `CCOC(=O)c1ccc(NC(=O)C=C(c2ccc(C)cc2)c2ccc(C)cc2)cc1` [4-[3,3-Di-(p-tolyl)acrylamido]benzoic acid, ethyl ester], which inhibition at 5.2 µg/mL is on record?
A: Its inhibition at 5.2 µg/mL is 97%.
